The target in data set [1] is T1, PTP1B (Homo sapiens, UniProt P18031).
T1 sequence (P18031 1-435): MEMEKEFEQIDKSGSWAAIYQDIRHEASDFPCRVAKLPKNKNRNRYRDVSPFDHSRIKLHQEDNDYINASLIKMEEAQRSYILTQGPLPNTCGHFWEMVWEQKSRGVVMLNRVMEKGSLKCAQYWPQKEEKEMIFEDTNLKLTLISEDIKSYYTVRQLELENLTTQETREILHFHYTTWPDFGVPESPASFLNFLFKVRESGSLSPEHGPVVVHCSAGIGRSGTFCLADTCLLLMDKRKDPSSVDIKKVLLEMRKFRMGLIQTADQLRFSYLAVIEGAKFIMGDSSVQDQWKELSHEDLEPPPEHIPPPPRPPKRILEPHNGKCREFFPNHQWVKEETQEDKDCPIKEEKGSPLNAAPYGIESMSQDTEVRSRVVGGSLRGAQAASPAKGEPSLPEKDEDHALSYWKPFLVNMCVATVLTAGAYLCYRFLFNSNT
Put plainly: In vitro spectrophotometric PTP1B inhibition assay (pNPP substrate). It is filed as biochemical. How it is done:
The spectrophotometric method previously described was used.[39] The compounds and the positive control were dissolved in dimethylsulfoxide (DMSO). Aliquots of 0–10 μL solution of the compounds to be tested (in triplicate) were incubated with 85 μL of the enzyme (66 nM) in Tris [50 mM; Tris‐HCI Buffer, pH 6.8] and 5 microliters of the substrate (pNPP, 10 mM), for 15 min at 37 °C. After incubation, the absorbance was determined. The inhibitory activity for the compounds was determined as a percentage compared to the blank (Tris) according to the following equation: (1) %PTP1B=1-A415t/A415cX100%
Where %PTP1B is the percentage inhibition, A415t is the corrected absorbance of the tested compound (A415 final‐A415 initial), and A415c is the corrected absorbance of the blank (A415 final blank‐A415 initial target). The IC50 was calculated by regression analysis using the following equation: (2) %Inhibition=A100/1+I/CI50^s

On the set-up of data set [2]: method as in PMID 11375780. The conditions noted are these: cited from earlier work.
Details of data set [3]: method as in PMID 19961047. Particulars: ingestion during pregnancy or shortly before conception; cited from earlier work.
Data set [4] concerns the target T1, PTP1B. The data set can be described thus: Enzyme kinetics studies, type of inhibition (Lineweaver-Burk). The conditions noted are these: for type of inhibition: Lineweaver-Burk plot.
Protocol: The assay was carried out with different concentrations of inhibitor (0, 0.005, 0.040 and 0.060 mM) and substrate (0.10, 0.20, 0.30, 0.40, and 0.50 mM). Kinetic parameters (Vmax, Km, and Ki) were obtained by nonlinear regression fit analysis using Origin 2018 software.

On to `CC1=C(/C=C/C(C)=C/C=C/C(C)=C\C(=O)O)C(C)(C)CCC1` [3a, 13‐cis‐retinoic acid], for which inhibition in data set [1] (PTP1B 66 nM, pNPP, Tris pH 6.8, 15 min at 37 °C) was half-maximal at 44 µM (IC50). Also, the “inhibitory activity against PTP1B” value in data set [1] (compounds evaluated at 2 mM) was “significant inhibitory activity”. In addition, the DE50 for humans in data set [2] was 0.4 mg/kg. Also, in data set [3], the teratogenic effect entry is “teratogen”. Moreover, in data set [4], the Ki is 23.4 ± 2 µM and the type of inhibition result was “competitive inhibition”. In addition, the type of inhibition entry in data set [4] (listed as 13‐cis‐retinoic acid) is “competitive PTP1B inhibitor”.

Source of the values: paper PMC11617665, “Virtual and in Vitro Screening Employing a Repurposing Approach Reveal 13‐cis‐Retinoic Acid is a PTP1B Inhibitor” (Chemmedchem, 2024).
